Test results as given in US7118895B2, “Process for producing aglycon by using diglycosidase and flavor-improved food containing the aglycon and converting agent to be used in the process” (Amano Enzyme Inc., priority 2000, dated 2006).

Experiments:
[1] = tested on: β-Glucosidase derived from A. niger; test: Reactivity toward various isoflavone glycosides (HPLC); format: biochemical, Aspergillus niger; design: glucoside / aglycon: unit not given here; conditions: 55 °C, pH 4.0
Summary of the method: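 Enzymes at 0.75 AU/mL in pH 4.0 acetate buffer were reacted at 55° C with individual isoflavone glycosides (substrate stock 2 mM in methanol) in 20 mM acetate pH 4.0. Aglycone release followed at 0, 1, 3 and 6 h: ethanol-quenched, ODS HPLC with UV 260 nm, quantified against calibration curves.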

Crude diglycosidase = test: Examination of substrate concentration in the conversion into isoflavone aglycons by diglycosidase using soybean materials; format: biochemical, Penicillium multicolor IAM7153;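 further: percent of the isoflavone family total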
Summary of the method: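 Soybean materials (roasted soy flour, soymilk, defatted soybean, concentrated soy protein) at 2–30% (w/v) in 20 mM acetate pH 4.0 were reacted with crude diglycosidase at 55° C with shaking; enzyme solution added was 1.88 AU/mL. Samples taken at 0, 1, 3 and 6 h were ethanol-extracted and analyzed by HPLC.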

Molecule `COc1cc2c(=O)c(-c3ccc(O)cc3)coc2cc1O[C@@H]1O[C@H](COC(=O)CC(=O)O)[C@@H](O)[C@H](O)[C@H]1O` [malonylglycitin, 6″-O-malonylglycitin] has an aglycon ([1]; Reaction time 0 h) of 0, a glucoside ([1]; Reaction time 0 h) of 100 and an aglycon ([1]; Reaction time 1 h) of 1.2. The glucoside ([1]; Reaction time 1 h) was 98.8, the aglycon ([1]; Reaction time 3 h) was 4.4 and the glucoside ([1]; Reaction time 3 h) was 95.6. For the same molecule, the aglycon ([1]; Reaction time 6 h) was 9.1, the glucoside ([1]; Reaction time 6 h) was 90.9 and the “Decomposition efficiency: ratio of each glycoside/aglycon within its isoflavone family” value (Crude diglycosidase; concentrated soybean protein, substrate concentration 2%, heat treatment of enzyme no, reaction time 0 h) was 0.4%. The “Decomposition efficiency: ratio of each glycoside/aglycon within its isoflavone family” value (Crude diglycosidase; concentrated soybean protein, substrate concentration 2%, heat treatment of enzyme no, reaction time 1 h) was 0.4%, the “Decomposition efficiency: ratio of each glycoside/aglycon within its isoflavone family” value (Crude diglycosidase; concentrated soybean protein, substrate concentration 2%, heat treatment of enzyme no, reaction time 3 h) was 0.2% and the “Decomposition efficiency: ratio of each glycoside/aglycon within its isoflavone family” value (Crude diglycosidase; concentrated soybean protein, substrate concentration 2%, heat treatment of enzyme no, reaction time 6 h) was “not detected”. For the same molecule, the “Decomposition efficiency: ratio of each glycoside/aglycon within its isoflavone family” value (Crude diglycosidase; concentrated soybean protein, substrate concentration 2%, heat treatment of enzyme yes, reaction time 6 h) was 0.4%, the “Decomposition efficiency: ratio of each glycoside/aglycon within its isoflavone family” value (Crude diglycosidase; concentrated soybean protein, substrate concentration 5%, heat treatment of enzyme no, reaction time 0 h) was 0.4% and the “Decomposition efficiency: ratio of each glycoside/aglycon within its isoflavone family” value (Crude diglycosidase; concentrated soybean protein, substrate concentration 5%, heat treatment of enzyme no, reaction time 1 h) was 0.5%. The “Decomposition efficiency: ratio of each glycoside/aglycon within its isoflavone family” value (Crude diglycosidase; concentrated soybean protein, substrate concentration 5%, heat treatment of enzyme no, reaction time 3 h) was 0.4%, the “Decomposition efficiency: ratio of each glycoside/aglycon within its isoflavone family” value (Crude diglycosidase; concentrated soybean protein, substrate concentration 5%, heat treatment of enzyme no, reaction time 6 h) was 0.2% and the “Decomposition efficiency: ratio of each glycoside/aglycon within its isoflavone family” value (Crude diglycosidase; concentrated soybean protein, substrate concentration 5%, heat treatment of enzyme yes, reaction time 6 h) was 0.4%. The “Decomposition efficiency: ratio of each glycoside/aglycon within its isoflavone family” value (Crude diglycosidase; concentrated soybean protein, substrate concentration 10%, heat treatment of enzyme no, reaction time 0 h) was 0.3%, the “Decomposition efficiency: ratio of each glycoside/aglycon within its isoflavone family” value (Crude diglycosidase; concentrated soybean protein, substrate concentration 10%, heat treatment of enzyme no, reaction time 1 h) was 0.4% and the “Decomposition efficiency: ratio of each glycoside/aglycon within its isoflavone family” value (Crude diglycosidase; concentrated soybean protein, substrate concentration 10%, heat treatment of enzyme no, reaction time 3 h) was 0.3%. For the same molecule, the “Decomposition efficiency: ratio of each glycoside/aglycon within its isoflavone family” value (Crude diglycosidase; concentrated soybean protein, substrate concentration 10%, heat treatment of enzyme no, reaction time 6 h) was 0.3%, the “Decomposition efficiency: ratio of each glycoside/aglycon within its isoflavone family” value (Crude diglycosidase; concentrated soybean protein, substrate concentration 10%, heat treatment of enzyme yes, reaction time 6 h) was 0.3% and the “Decomposition efficiency: ratio of each glycoside/aglycon within its isoflavone family” value (Crude diglycosidase; concentrated soybean protein, substrate concentration 20%, heat treatment of enzyme no, reaction time 0 h) was 0.2%. The “Decomposition efficiency: ratio of each glycoside/aglycon within its isoflavone family” value (Crude diglycosidase; concentrated soybean protein, substrate concentration 20%, heat treatment of enzyme no, reaction time 1 h) was 0.3%, the “Decomposition efficiency: ratio of each glycoside/aglycon within its isoflavone family” value (Crude diglycosidase; concentrated soybean protein, substrate concentration 20%, heat treatment of enzyme no, reaction time 3 h) was 0.2% and the “Decomposition efficiency: ratio of each glycoside/aglycon within its isoflavone family” value (Crude diglycosidase; concentrated soybean protein, substrate concentration 20%, heat treatment of enzyme no, reaction time 6 h) was 0.3%. The “Decomposition efficiency: ratio of each glycoside/aglycon within its isoflavone family” value (Crude diglycosidase; concentrated soybean protein, substrate concentration 20%, heat treatment of enzyme yes, reaction time 6 h) was 0.4%, the “Decomposition efficiency: ratio of each glycoside/aglycon within its isoflavone family” value (Crude diglycosidase; concentrated soybean protein, substrate concentration 30%, heat treatment of enzyme no, reaction time 0 h) was 0.4% and the “Decomposition efficiency: ratio of each glycoside/aglycon within its isoflavone family” value (Crude diglycosidase; concentrated soybean protein, substrate concentration 30%, heat treatment of enzyme no, reaction time 1 h) was 0.6%. For the same molecule, the “Decomposition efficiency: ratio of each glycoside/aglycon within its isoflavone family” value (Crude diglycosidase; concentrated soybean protein, substrate concentration 30%, heat treatment of enzyme no, reaction time 3 h) was 0.5%, the “Decomposition efficiency: ratio of each glycoside/aglycon within its isoflavone family” value (Crude diglycosidase; concentrated soybean protein, substrate concentration 30%, heat treatment of enzyme no, reaction time 6 h) was 0.3% and the “Decomposition efficiency: ratio of each glycoside/aglycon within its isoflavone family” value (Crude diglycosidase; concentrated soybean protein, substrate concentration 30%, heat treatment of enzyme yes, reaction time 6 h) was 0.4%. The “Decomposition efficiency: ratio of each glycoside/aglycon within its isoflavone family” value (Crude diglycosidase; defatted soybean, substrate concentration 2%, heat treatment of enzyme no, reaction time 0 h) was “not detected”, the “Decomposition efficiency: ratio of each glycoside/aglycon within its isoflavone family” value (Crude diglycosidase; defatted soybean, substrate concentration 2%, heat treatment of enzyme no, reaction time 1 h) was “not detected” and the “Decomposition efficiency: ratio of each glycoside/aglycon within its isoflavone family” value (Crude diglycosidase; defatted soybean, substrate concentration 2%, heat treatment of enzyme no, reaction time 3 h) was “not detected”. For the same molecule, the “Decomposition efficiency: ratio of each glycoside/aglycon within its isoflavone family” value (Crude diglycosidase; defatted soybean, substrate concentration 2%, heat treatment of enzyme no, reaction time 6 h) was “not detected”, the “Decomposition efficiency: ratio of each glycoside/aglycon within its isoflavone family” value (Crude diglycosidase; defatted soybean, substrate concentration 2%, heat treatment of enzyme yes, reaction time 6 h) was “not detected” and the “Decomposition efficiency: ratio of each glycoside/aglycon within its isoflavone family” value (Crude diglycosidase; defatted soybean, substrate concentration 5%, heat treatment of enzyme no, reaction time 0 h) was 58.4%. The “Decomposition efficiency: ratio of each glycoside/aglycon within its isoflavone family” value (Crude diglycosidase; defatted soybean, substrate concentration 5%, heat treatment of enzyme no, reaction time 1 h) was 41.6%, the “Decomposition efficiency: ratio of each glycoside/aglycon within its isoflavone family” value (Crude diglycosidase; defatted soybean, substrate concentration 5%, heat treatment of enzyme no, reaction time 3 h) was 31.8% and the “Decomposition efficiency: ratio of each glycoside/aglycon within its isoflavone family” value (Crude diglycosidase; defatted soybean, substrate concentration 5%, heat treatment of enzyme no, reaction time 6 h) was 19.5%. For the same molecule, the “Decomposition efficiency: ratio of each glycoside/aglycon within its isoflavone family” value (Crude diglycosidase; defatted soybean, substrate concentration 5%, heat treatment of enzyme yes, reaction time 6 h) was 58.5%, the “Decomposition efficiency: ratio of each glycoside/aglycon within its isoflavone family” value (Crude diglycosidase; defatted soybean, substrate concentration 10%, heat treatment of enzyme no, reaction time 0 h) was 53.0% and the “Decomposition efficiency: ratio of each glycoside/aglycon within its isoflavone family” value (Crude diglycosidase; defatted soybean, substrate concentration 10%, heat treatment of enzyme no, reaction time 1 h) was 54.7%. For the same molecule, the “Decomposition efficiency: ratio of each glycoside/aglycon within its isoflavone family” value (Crude diglycosidase; defatted soybean, substrate concentration 10%, heat treatment of enzyme no, reaction time 3 h) was 36.6%, the “Decomposition efficiency: ratio of each glycoside/aglycon within its isoflavone family” value (Crude diglycosidase; defatted soybean, substrate concentration 10%, heat treatment of enzyme no, reaction time 6 h) was 27.9% and the “Decomposition efficiency: ratio of each glycoside/aglycon within its isoflavone family” value (Crude diglycosidase; defatted soybean, substrate concentration 10%, heat treatment of enzyme yes, reaction time 6 h) was 57.6%. For the same molecule, the “Decomposition efficiency: ratio of each glycoside/aglycon within its isoflavone family” value (Crude diglycosidase; roasted soy flour, substrate concentration 2%, heat treatment of enzyme no, reaction time 0 h) was “not detected”, the “Decomposition efficiency: ratio of each glycoside/aglycon within its isoflavone family” value (Crude diglycosidase; roasted soy flour, substrate concentration 2%, heat treatment of enzyme no, reaction time 1 h) was “not detected” and the “Decomposition efficiency: ratio of each glycoside/aglycon within its isoflavone family” value (Crude diglycosidase; roasted soy flour, substrate concentration 2%, heat treatment of enzyme no, reaction time 3 h) was “not detected”. For the same molecule, the “Decomposition efficiency: ratio of each glycoside/aglycon within its isoflavone family” value (Crude diglycosidase; roasted soy flour, substrate concentration 2%, heat treatment of enzyme no, reaction time 6 h) was “not detected” and the “Decomposition efficiency: ratio of each glycoside/aglycon within its isoflavone family” value (Crude diglycosidase; roasted soy flour, substrate concentration 2%, heat treatment of enzyme yes, reaction time 6 h) was “not detected”.
